Data set [1] has as its target T1, BRPF1 (BRD) (Homo sapiens, UniProt P55201).
T1 sequence (P55201 628-732 limits assumed): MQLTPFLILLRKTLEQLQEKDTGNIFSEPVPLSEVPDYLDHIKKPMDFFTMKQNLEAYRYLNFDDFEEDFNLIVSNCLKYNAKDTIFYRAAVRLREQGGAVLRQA
Nature of the data set: BROMOscan assay, BRPF1. As to conditions: mean of duplicate data ± 95% confidence interval.

The target in data set [2] is T2, TRIM24 (PHD‐BRD) (Homo sapiens, UniProt O15164).
T2 sequence (O15164 826-1004 limits assumed): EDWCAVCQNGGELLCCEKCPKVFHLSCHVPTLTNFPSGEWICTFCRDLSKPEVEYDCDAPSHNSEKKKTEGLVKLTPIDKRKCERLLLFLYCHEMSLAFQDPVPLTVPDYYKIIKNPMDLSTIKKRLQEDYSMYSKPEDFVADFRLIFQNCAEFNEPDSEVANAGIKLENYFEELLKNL
Nature of the data set: BROMOscan assay, TRIM24. The format is binding. The source says:
The Hill Slope was set to −1.

The target of data set [3] is T3, His6-TRIM24 (PHD-BRD) (Homo sapiens, UniProt O15164).
T3 sequence (O15164 825-1007): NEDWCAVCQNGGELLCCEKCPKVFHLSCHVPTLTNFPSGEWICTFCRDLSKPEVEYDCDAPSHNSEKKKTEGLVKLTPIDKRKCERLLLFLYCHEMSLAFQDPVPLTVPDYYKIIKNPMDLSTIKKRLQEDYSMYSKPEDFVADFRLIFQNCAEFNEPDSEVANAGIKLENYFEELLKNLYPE
In words: AlphaScreen competition assay, displacement of biotinylated H3(1–27)K18Ac (B2). More on the design: N825–E1007; made in house; host or cells: Escherichia coli BL21-Gold (DE3), plasmid pNIC28-Bsa4. As to conditions: inhibition of TRIM24-H3K18Ac (B2) binding; mean of triplicate ± SEM. For orientation: Alpha assays give light when donor and acceptor beads are brought close together.

For data set [4], the target named is T3, His6-TRIM24 (PHD-BRD). Nature of the data set: Surface plasmon resonance (SPR). Type of data set: binding. More on the design: N825–E1007; made in house; host or cells: Escherichia coli BL21-Gold (DE3), plasmid pNIC28-Bsa4. As to conditions: 15 °C; for Kd: mean of means of triplicate ± SEM. In general terms: In SPR one partner is held on a chip, and binding of the other changes the refractive index at the surface.

For data set [5], the target named is T3, His6-TRIM24 (PHD-BRD). Nature of the data set: AlphaScreen competition assay, displacement of biotinylated H3(1–27)K9Me3K18Ac (B3). Type of data set: binding. More on the design: N825–E1007; made in house; host or cells: Escherichia coli BL21-Gold (DE3), plasmid pNIC28-Bsa4. As to conditions: for IC50: AlphaScreen® IC50 (TRIM24 PHD-BRD), inhibition of TRIM24-H3K9Me3K18Ac (B3) binding, mean of triplicate ± SEM; for AlphaScreen signal at plateau relative to baseline: competitor H3(1–27)K9Me3K18Ac.

In data set [6] the target is T3, His6-TRIM24 (PHD-BRD).
For data set [7], the system named is BT-474 (ER+). Nature of the data set: MTT assay, BT-474. The format is cell-based, human. As to conditions: ER+ breast cancer cell line, up to 10 μM, 16 h. The method, then:
(§1) (ER+) and CAL-51 (triple negative), treated with the indicated compound (10 µM). The data are represented as the mean of means for two biological repeats (n = 2), each consisting of three technical repeats. Error bars indicate the standard error of the mean. […]
(§2) due to issues with procurement at the time of running the assay. […]
(§3) indicated compound (10 µM). Compounds were added after seeding on day 0 only and counting was carried out each day for 6 days. Data are represented as the mean of triplicate data from one biological repeat. Error bars indicate the standard deviation. […]
(§4) supplemented with 10% FBS (Merck Life Sciences U.K. Ltd., F7524). Unless otherwise stated, cells were cultured in a humidified incubator at 37 °C and 5% CO2. Cell lines were passaged by trypsinisation (Trypsin-EDTA solution 1×, Merck Life Sciences U.K. Ltd., T3924), and by diluting the cells into a culture flask at the desired density in complete media. Cell lines were […]
(§5) Cells were seeded and allowed to adhere for 6 h in plastic clear-bottomed 96-well plates in a total volume of 200 μL/well complete medium.
For orientation: Formazan colour is commonly taken as a measure of viable cells.

Data set [8] has as its system CAL-51 (triple negative). In words: MTT assay, CAL-51. The format is cell-based, human. As to conditions: triple-negative breast cancer cell line, up to 10 μM, 16 h. The protocol: as §1, §2, §3, §4, §5
The test system of data set [9] is MCF-7 cells. In words: Proliferation and clonogenic assays, MCF-7. As to conditions: MCF-7, 10 µM. The format is cell-based, human. The method, then:
as §1, §2, §3
Error bars indicate the standard deviation.
(§6) (1 picture or pasted object on this page, not shown here) […]
as §4, §5

Data set [10] deals with CAL-51 cells. In words: Proliferation and clonogenic assays, CAL-51. The format is cell-based, human. As to conditions: CAL-51, 10 µM. The protocol: as §6, §4, §5
Data set [11] has as its target His6-TRIM24 (PHD-BRD) (UniProt O15164). Nature of the data set: other; AlphaScreen, competitor biotinylated H3K9Me3K18Ac (B3).
Data set [12] addresses BRPF1. As to conditions: ref Gechijian et al. 2018; cited from earlier work.
The target of data set [13] is TRIM24. As to conditions: ref Gechijian et al. 2018; cited from earlier work.
In data set [14] the test system is TRIM33α. More on the design: method as in PMID 36098557, PMID 26061247. As to conditions: cited from earlier work.
Data set [15] has as its system TRIM33β. More on the design: method as in PMID 36098557, PMID 26061247. As to conditions: cited from earlier work.
Data set [16] has as its target T4, BRPF1 (BRD).
T4 chain: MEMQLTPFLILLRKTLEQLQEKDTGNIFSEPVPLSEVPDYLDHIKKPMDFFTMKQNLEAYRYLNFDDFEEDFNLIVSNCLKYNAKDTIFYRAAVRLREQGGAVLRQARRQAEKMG
As to conditions: Synthetic nine-residue H3(1-9) peptide. Residue 9 (K10 in precursor numbering) is unnatural amino acid 42, a lysine analogue whose side-chain nitrogen is part of an isoindoline ring (parent written as Lys). C-terminal group is not stated in the text. Limits are inferred from H3(1-8) peptide 46 plus amino acid 42. limits by convention from the usual BRPF1 bromodomain structural construct (covers B); modification not given.

In data set [17] the target is T4, BRPF1 (BRD). In words: BROMOscan. As to conditions: Synthetic nine-residue H3(1-9) peptide. Residue 9 (K10 in precursor numbering) is unnatural amino acid 42, a lysine analogue whose side-chain nitrogen is part of an isoindoline ring (parent written as Lys). C-terminal group is not stated in the text. Limits are inferred from H3(1-8) peptide 46 plus amino acid 42. limits by convention from the usual BRPF1 bromodomain structural construct (covers B); modification not given.

Values joined by “and” are separate entries in the source; they are usually repeats but may differ in a detail not shown here. Equal values may be shown once. Read-outs that look alike come from different tables or passages of the source.

For `CCCOc1cccc(Oc2cc3c(cc2NS(=O)(=O)c2cccc(C(=O)NCCOCCOCCOCCOCCNC(C)=O)c2)n(C)c(=O)n3C)c1` [compound 34], the Kd (commonly the constant that tells how readily two partners part at equilibrium) in data set [1] was 0.00215 ± 0.00049 µM; in data set [2] (BROMOscan TRIM24 PHD-BRD Kd, mean of duplicate data ± 95% confidence interval), 0.002 ± 0.00098 µM; in data set [2] (individual duplicate curves, read-out: BROMOscan TRIM24 Kd, single dose-response curve), 0.0025 µM and 0.0015 µM; in [4] (binding saturation, read-out: SPR Kd – equilibrium), 0.011 ± 0.0023 µM; in data set [4] (multi-cycle kinetics, read-out: SPR Kd – kinetic) it was 0.01 ± 0.007 µM. For the same molecule, the IC50 (as a rule, the concentration that inhibits the measured activity by half) was 0.0942 ± 0.0046 µM in data set [3] and 0.275 µM in data set [5]. Besides, in data set [4] (SPR), the koff (in general, the rate constant with which the complex falls apart) was 0.061 s⁻¹. Also, the kon (commonly the second-order rate constant of association) in data set [4] (SPR) came to 6.1e+06 M⁻¹ s⁻¹. Further, the “AlphaScreen signal at plateau relative to baseline” value in data set [5] was “did not decrease to baseline”.
In [3], `CCCOc1cccc(Oc2cc3c(cc2NS(=O)(=O)c2cccc(C(=O)NCCOCCOCCNC(C)=O)c2)n(C)c(=O)n3C)c1` [compound 32] yielded an IC50 of 0.105 ± 0.0053 µM. Besides, in data set [5], the IC50 stood at 0.484 µM and the “AlphaScreen signal at plateau relative to baseline” value was “did not decrease to baseline”.
`C[C@H](N)C(=O)N[C@@H](CCCNC(=N)N)C(=O)N[C@H](C(=O)N[C@@H](CCCC[N+](C)(C)C)C(=O)N[C@@H](CCC(N)=O)C(=O)N[C@H](C(=O)N[C@@H](C)C(=O)N[C@@H](CCCNC(=N)N)C(=O)N[C@@H](CCCCN)C(=O)N[C@@H](CO)C(=O)N[C@H](C(=O)NCC(=O)NCC(=O)N[C@@H](CCCCN)C(=O)N[C@@H](C)C(=O)O)[C@@H](C)O)[C@@H](C)O)[C@@H](C)O` [reference compound]: the IC50 in data set [3] was over 400 µM; in data set [6] (AlphaScreen® IC50, inhibition of TRIM24-H3K9Me3 (B1) binding by PDCs and controls, mean of triplicate ± SEM), over 400 µM; in data set [6] (AlphaScreen® IC50, inhibition of TRIM24-H3K9Me3 (B1) binding, mean of triplicate data ± standard error of the mean) it was over 400 µM; in [5], over 400 µM.
As for `CCCOc1cccc(Oc2cc3c(cc2NS(=O)(=O)c2cccc(C(=O)O)c2)n(C)c(=O)n3C)c1` [compound 28], the IC50 in data set [3] came out at 0.388 ± 0.0466 µM. Moreover, in data set [5], the IC50 is over 100 µM and the “AlphaScreen signal at plateau relative to baseline” value is listed as “did not decrease to baseline”.
For the molecule `CCCOc1cccc(Oc2cc3c(cc2NS(=O)(=O)c2cccc(C(=O)NCCOCCOCCOCCNC(C)=O)c2)n(C)c(=O)n3C)c1` [compound 33], the “cytotoxic effects (MTT)” value in data set [7] and in data set [8] was “did not show cytotoxic effects” throughout. The “effect on breast cancer cell growth” value in data set [9] and in data set [10] was “neither compound significantly affected” throughout. In addition, the values for the IC50 in data set [3] and in data set [5] were 0.071 ± 0.0041 µM and 0.348 µM, respectively. In data set [5], the “AlphaScreen signal at plateau relative to baseline” value is “did not decrease to baseline”.
For the molecule H3(1-27)K9Me3K18Ac, in data set [11], the IC50 was 0.242 µM.
Regarding `CCCOc1cccc(Oc2cc3c(cc2NS(=O)(=O)c2cccc(C(=O)NCCOCCOCCOCC(=O)N[C@H](C(=O)N4C[C@H](O)C[C@H]4C(=O)NCc4ccc(-c5scnc5C)cc4)C(C)(C)C)c2)n(C)c(=O)n3C)c1` [dTRIM24], the Kd in data set [12] is 0.052 µM; in [13], 0.042 µM.
With `CCCOc1cc(OCCCCN(C)C)cc(Oc2cc3c(cc2NS(=O)(=O)c2ccc(OC)c(OC)c2)n(C)c(=O)n3C)c1` [IACS9571], in data set [14], the “binding to TRIM33α” value is reported as “does not bind”. Besides, the “binding to TRIM33β” value in [15] is reported as “does not bind”.
With ARTKQTARK [TRIM24 PHD-binding peptide (56)], the Kd in data set [16] and in [17] was over 10 µM throughout.
